Measured values taken from patent US9980927B2, “Use of tapentadol for inhibiting and/or treating depression and anxiety” (Gruenenthal GmbH, priority 2011, dated 2018).

Tested on: patients with inadequately managed, severe chronic low back pain with or without a neuropathic pain component
Test: Hospital Anxiety and Depression Scale (HADS) anxiety score; open-label phase IIIb trial, tapentadol prolonged release 50-250 mg bid for up to 12 weeks
Type: in vivo, human patients
Details: for HADS anxiety score, course: Baseline to Week 12
Experimental: As used herein, the “anxiety score” is a value determining the degree of the […]. The scale of anxiety scores covers the range from 0 to 21, wherein the degree of the anxiety is high in case of high values and low in case of low values. In a group of tested subjects, typically the mean or mediate values of anxiety scores are determined and referred to. The mean value is the sum of all anxiety scores divided by the number of subjects. The mediate value is the middle anxiety score in the set of determined scores. Preferably, the “anxiety score” is defined as in the experimental section.
A subgroup suffering from neuropathic pain due to lumbar radiculopathy was also investigated.
This was a multicenter, multinational, open-label, effectiveness phase IIIb trial to evaluate effectiveness and safety of tapentadol prolonged release treatment in patients with inadequately managed, severe chronic low back pain with or without a neuropathic pain component. Patients taking WHO Step II analgesics discontinued those analgesics before starting study medication; patients taking Step I analgesics and/or centrally acting co-analgesics continued on the same dose. […] All patients received tapentadol prolonged release (50-250 mg bid) for up to 12 weeks (5-week titration period and a 7-week maintenance period). Tapentadol immediate release (IR) 50 mg (twice a day, hours apart) was permitted (combined total daily dose of tapentadol prolonged release and tapentadol IR, 500 mg/day). The primary efficacy endpoint was the change from Baseline to Week 6 (when tapentadol prolonged release doses were stable) in average pain intensity on the 11-point NRS-3 using the last observation carried forward (LOCF) for imputing missing scores. The painDETECT questionnaire was used to evaluate the likelihood of a neuropathic pain component of low back pain; patients were classified as painDETECT “negative,” “unclear,” or “positive.” The population of patients classified as painDETECT negative was limited to approximately 30% of the total population.
In the painDETECT positive trial population the “diagnosis of lumbar radiculopathy” was evaluated which was defined per study protocol according following criteria: • typical dermatomal pain (radiating beyond the knee towards the foot, pain evoked by stretching within distribution of the ischiadic/femoral nerve) • signs of root dysfunction: • such as sensory impairment, motor symptoms from compression of lumbar nerve root (L4, L5, S1). • and/or absent or diminished quadriceps femoris or triceps surae reflexes. • and/or quantitative sensory testing (QST) deficit and pain distribution present in the same dermatomal area.
All subjects completed Short Form-36 (SF-36) and EuroQol-5 Dimension (EQ-5D) questionnaires and the Hospital Anxiety and Depression Scale (HADS). The Patient Global Impression of Change (PGIC) and Clinical global impression of change (CGIC) were also used as secondary endpoints. For both tests, patients completed the statement, “since I began trial treatment, I would rate my overall condition as,” using 7 possible responses (“very much worse” to “very much improved”). Adverse events were recorded throughout the trial.
In the following • (i) N is the number of subjects of the specified diagnosis group, • (ii) n is the number of subjects with data available, • (iii) “Mean” is the mean score of the subjects, i.e. the sum of all scores is divided by the number of subjects, • (iv) SD is the standard deviation, • (v) “Median” is the median score of the subjects, i.e. the middle score in the set of scores, • (vi) “Range” is the range of scores of the subjects, i.e. the range defined by the lowest and the highest score of the set of scores. First, the depression scores are presented. The total number of subjects in the clinical study: N=175

[1] = Visit 1, defined neuropathic pain N=85
[2] = Visit 1, positive diagnosis of lumbar radiculopathy-neuropathic pain subset N=44
[3] = Visit 1, presumed neuropathic pain component N=41
[4] = Visit 1, presumed or defined neuropathic pain component N=126
[5] = Visit 1, subjects with nociceptive pain N=49
[6] = Visit 5, defined neuropathic pain N=85
[7] = Visit 5, positive diagnosis of lumbar radiculopathy-neuropathic pain subset N=44
[8] = Visit 5, presumed neuropathic pain component N=41
[9] = Visit 5, presumed or defined neuropathic pain component N=126
[10] = Visit 5, subjects with nociceptive pain N=49
[11] = Visit 6, defined neuropathic pain N=85
[12] = Visit 6, positive diagnosis of lumbar radiculopathy-neuropathic pain subset N=44
[13] = Visit 6, presumed neuropathic pain component N=41
[14] = Visit 6, presumed or defined neuropathic
[15] = Visit 6, presumed or defined neuropathic pain component N=126
[16] = Visit 6, subjects with nociceptive pain N=49
[17] = Visit 7, defined neuropathic pain N=85
[18] = Visit 7, positive diagnosis of lumbar radiculopathy-neuropathic pain subset N=44
[19] = Visit 7, presumed neuropathic pain component N=41
[20] = Visit 7, presumed or defined neuropathic pain component N=126
[21] = Visit 7, subjects with nociceptive pain N=49
[22] = Visit 8, defined neuropathic pain N=85
[23] = Visit 8, positive diagnosis of lumbar radiculopathy-neuropathic pain subset N=44
[24] = Visit 8, presumed neuropathic pain component N=41
[25] = Visit 8, presumed or defined neuropathic
[26] = Visit 8, presumed or defined neuropathic pain component N=126
[27] = Visit 8, subjects with nociceptive pain N=49
[28] = Visit 9, defined neuropathic pain N=85
[29] = Visit 9, positive diagnosis of lumbar radiculopathy-neuropathic pain subset N=44
[30] = Visit 9, presumed neuropathic pain component N=41
[31] = Visit 9, presumed or defined neuropathic pain component N=126
[32] = Visit 9, subjects with nociceptive pain N=49
[33] = Visit 10, defined neuropathic pain N=85
[34] = Visit 10, positive diagnosis of lumbar radiculopathy-neuropathic pain subset N=44
[35] = Visit 10, presumed neuropathic pain component N=41
[36] = Visit 10, presumed or defined neuropathic pain component N=126
[37] = Visit 10, subjects with nociceptive pain N=49
[38] = Visit 11, defined neuropathic pain N=85
[39] = Visit 11, positive diagnosis of lumbar radiculopathy-neuropathic pain subset N=44
[40] = Visit 11, presumed neuropathic pain component N=41
[41] = Visit 11, presumed or defined neuropathic pain component N=126
[42] = Visit 11, subjects with nociceptive pain N=49
[43] = Visit 12, defined neuropathic pain N=85
[44] = Visit 12, positive diagnosis of lumbar radiculopathy-neuropathic pain subset N=44
[45] = Visit 12, presumed neuropathic pain component N=41
[46] = Visit 12, presumed or defined neuropathic
[47] = Visit 12, presumed or defined neuropathic pain component N=126
[48] = Visit 12, subjects with nociceptive pain N=49

CC[C@@H](c1cccc(O)c1)[C@@H](C)CN(C)C [tapentadol, (−)-(1R,2R)-3-(3-dimethylamino-1-ethyl-2-methyl-propyl)-phenol]
HADS anxiety score, course (painDETECT negative): not significantly
HADS anxiety score, course (painDETECT unclear/positive, P<0.0001 at Visit 12): improved steadily
HADS anxiety score, course (positive diagnosis of lumbar radiculopathy-neuropathic pain subset, p=0.0105 at Visit 12): improved steadily
Anxiety score Mean (SD) [1]: 8.3 (4.01)
Anxiety score Median [1]: 8.0
Anxiety score Mean (SD) [2]: 8.7 (3.64)
Anxiety score Median [2]: 9.0
Anxiety score Mean (SD) [3]: 7.9 (4.52)
Anxiety score Median [3]: 7.0
Anxiety score Mean (SD) [4]: 8.2 (4.16)
Anxiety score Median [4]: 8.0
Anxiety score Mean (SD) [5]: 5.9 (4.19)
Anxiety score Median [5]: 6.0
Anxiety score Mean (SD) (Visit 1, total subjects N=175): 7.6 (4.28)
Anxiety score Median (Visit 1, total subjects N=175): 7.0
Anxiety score Mean (SD) [6]: 7.2 (3.89)
Anxiety score Median [6]: 8.0
Anxiety score Mean (SD) [7]: 6.8 (3.39)
Anxiety score Median [7]: 7.5
Anxiety score Mean (SD) [8]: 6.7 (4.22)
Anxiety score Median [8]: 7.0
Anxiety score Mean (SD) [9]: 7.0 (3.98)
Anxiety score Median [9]: 7.0
Anxiety score Mean (SD) [10]: 6.1 (3.80)
Anxiety score Median [10]: 5.0
Anxiety score Mean (SD) (Visit 5, total subjects N=175): 6.8 (3.94)
Anxiety score Median (Visit 5, total subjects N=175): 7.0
Anxiety score change from baseline Mean (SD) (Visit 6): −1.6 (3.58)
Anxiety score change from baseline Median (Visit 6): −1.0
Anxiety score change from baseline Mean (SD) (Visit 6, defined neuropathic): −1.4 (3.44)
Anxiety score change from baseline Median (Visit 6, defined neuropathic): −1.0
Anxiety score Mean (SD) [11]: 6.9 (3.66)
Anxiety score Median [11]: 6.0
Anxiety score change from baseline Mean (SD) (Visit 6, lumbar radiculopathy): −1.4 (3.88)
Anxiety score change from baseline Median (Visit 6, lumbar radiculopathy): −0.5
Anxiety score change from baseline Mean (SD) (Visit 6, nociceptive): −0.3 (2.93)
Anxiety score change from baseline Median (Visit 6, nociceptive): 0.0
Anxiety score Mean (SD) [12]: 7.1 (3.46)
Anxiety score Median [12]: 7.5
Anxiety score Mean (SD) [13]: 6.9 (3.99)
Anxiety score Median [13]: 6.0
Anxiety score change from baseline Mean (SD) [14]: −1.5 (3.47)
Anxiety score change from baseline Median [14]: −1.0
Anxiety score Mean (SD) [15]: 6.9 (3.75)
Anxiety score Median [15]: 6.0
Anxiety score Mean (SD) [16]: 5.8 (4.68)
Anxiety score Median [16]: 5.0
Anxiety score change from baseline Mean (SD) (Visit 6, total): −1.2 (3.36)
Anxiety score change from baseline Median (Visit 6, total): −1.0
Anxiety score Mean (SD) (Visit 6, total subjects N=175): 6.6 (4.02)
Anxiety score Median (Visit 6, total subjects N=175): 6.0
Anxiety score Mean (SD) [17]: 6.1 (3.91)
Anxiety score Median [17]: 6.0
Anxiety score Mean (SD) [18]: 6.1 (3.85)
Anxiety score Median [18]: 6.0
Anxiety score Mean (SD) [19]: 5.9 (4.08)
Anxiety score Median [19]: 5.5
Anxiety score Mean (SD) [20]: 6.0 (3.95)
Anxiety score Median [20]: 6.0
Anxiety score Mean (SD) [21]: 5.6 (4.15)
Anxiety score Median [21]: 5.0
Anxiety score Mean (SD) (Visit 7, total subjects N=175): 5.9 (3.99)
Anxiety score Median (Visit 7, total subjects N=175): 6.0
Anxiety score change from baseline Mean (SD) (Visit 8): −2.9 (3.11)
Anxiety score change from baseline Median (Visit 8): −2.0
Anxiety score change from baseline Mean (SD) (Visit 8, defined neuropathic): −2.2 (3.77)
Anxiety score change from baseline Median (Visit 8, defined neuropathic): −2.0
Anxiety score Mean (SD) [22]: 6.0 (3.66)
Anxiety score Median [22]: 5.0
Anxiety score change from baseline Mean (SD) (Visit 8, lumbar radiculopathy): −2.4 (4.23)
Anxiety score change from baseline Median (Visit 8, lumbar radiculopathy): −1.0
Anxiety score change from baseline Mean (SD) (Visit 8, nociceptive): −0.7 (3.88)
Anxiety score change from baseline Median (Visit 8, nociceptive): −1.0
Anxiety score Mean (SD) [23]: 5.9 (3.74)
Anxiety score Median [23]: 5.0
Anxiety score Mean (SD) [24]: 4.9 (4.04)
Anxiety score Median [24]: 4.0
Anxiety score change from baseline Mean (SD) [25]: −2.4 (3.57)
Anxiety score change from baseline Median [25]: −2.0
Anxiety score Mean (SD) [26]: 5.7 (3.80)
Anxiety score Median [26]: 5.0
Anxiety score Mean (SD) [27]: 5.4 (4.40)
Anxiety score Median [27]: 4.0
Anxiety score change from baseline Mean (SD) (Visit 8, total): −1.9 (3.72)
Anxiety score change from baseline Median (Visit 8, total): −2.0
Anxiety score Mean (SD) (Visit 8, total subjects N=175): 5.6 (3.95)
Anxiety score Median (Visit 8, total subjects N=175): 5.0
Anxiety score Mean (SD) [28]: 6.1 (3.99)
Anxiety score Median [28]: 5.0
Anxiety score Mean (SD) [29]: 6.2 (4.01)
Anxiety score Median [29]: 5.0
Anxiety score Mean (SD) [30]: 6.1 (5.10)
Anxiety score Median [30]: 6.0
Anxiety score Mean (SD) [31]: 6.1 (4.32)
Anxiety score Median [31]: 5.0
Anxiety score Mean (SD) [32]: 4.6 (3.34)
Anxiety score Median [32]: 4.0
Anxiety score Mean (SD) (Visit 9, total subjects N=175): 5.7 (4.10)
Anxiety score Median (Visit 9, total subjects N=175): 4.0
Anxiety score Mean (SD) [33]: 6.1 (3.98)
Anxiety score Median [33]: 6.0
Anxiety score Mean (SD) [34]: 6.1 (3.85)
Anxiety score Median [34]: 6.0
Anxiety score Mean (SD) [35]: 5.5 (5.46)
Anxiety score Median [35]: 4.0
Anxiety score Mean (SD) [36]: 5.9 (4.46)
Anxiety score Median [36]: 5.0
Anxiety score Mean (SD) [37]: 4.7 (3.21)
Anxiety score Median [37]: 4.0
Anxiety score Mean (SD) (Visit 10, total subjects N=175): 5.6 (4.16)
Anxiety score Median (Visit 10, total subjects N=175): 5.0
Anxiety score Mean (SD) [38]: 5.9 (3.84)
Anxiety score Median [38]: 5.5
Anxiety score Mean (SD) [39]: 6.3 (4.25)
Anxiety score Median [39]: 6.5
Anxiety score Mean (SD) [40]: 5.1 (4.25)
Anxiety score Median [40]: 4.0
Anxiety score Mean (SD) [41]: 5.6 (3.96)
Anxiety score Median [41]: 5.0
Anxiety score Mean (SD) [42]: 4.8 (3.77)
Anxiety score Median [42]: 4.0
Anxiety score Mean (SD) (Visit 11, total subjects N=175): 5.4 (3.91)
Anxiety score Median (Visit 11, total subjects N=175): 5.0
Anxiety score change from baseline Mean (SD) (Visit 12): −3.1 (3.16)
Anxiety score change from baseline Median (Visit 12): −3.0
Anxiety score change from baseline Mean (SD) (Visit 12, defined neuropathic): −2.3 (4.14)
Anxiety score change from baseline Median (Visit 12, defined neuropathic): −2.0
Anxiety score Mean (SD) [43]: 5.7 (3.80)
Anxiety score Median [43]: 5.0
Anxiety score change from baseline Mean (SD) (Visit 12, lumbar radiculopathy): −2.2 (4.11)
Anxiety score change from baseline Median (Visit 12, lumbar radiculopathy): −2.0
Anxiety score change from baseline Mean (SD) (Visit 12, nociceptive): −0.8 (2.82)
Anxiety score change from baseline Median (Visit 12, nociceptive): −1.0
Anxiety score Mean (SD) [44]: 5.7 (3.59)
Anxiety score Median [44]: 6.0
Anxiety score Mean (SD) [45]: 4.8 (3.67)
Anxiety score Median [45]: 4.0
Anxiety score change from baseline Mean (SD) [46]: −2.5 (3.85)
Anxiety score change from baseline Median [46]: −2.0
Anxiety score Mean (SD) [47]: 5.4 (3.76)
Anxiety score Median [47]: 5.0
Anxiety score Mean (SD) [48]: 4.5 (3.65)
Anxiety score Median [48]: 3.0
Anxiety score change from baseline Mean (SD) (Visit 12, total): −2.1 (3.67)
Anxiety score change from baseline Median (Visit 12, total): −2.0
Anxiety score Mean (SD) (Visit 12, total subjects N=175): 5.2 (3.73)
Anxiety score Median (Visit 12, total subjects N=175): 4.0
efficacy against anxiety (conclusion from the clinical data): significant efficacy
